Assay results taken from ChEMBL document CHEMBL1122286, “Heterocyclic oxyacetic acid diuretics: indazole, benzisothiazole, and benzisothiazole 1,1-dioxide analogues of [[7-chloro-3-(2-fluorophenyl)-1,2-benzisoxazol-6-yl]oxy]acetic acid” (1983).

Tests used:
Type in all cases: functional, Urine
Mus musculus [1] = test: Compound was tested for diuretic activity after oral administration of 64 mg/kg in saline-loaded mice (vehicle control value=0.05)
Mus musculus [2] = test: Compound was tested for diuretic activity after oral administration of 64 mg/kg in saline-loaded mice (vehicle control value=0.6)
Mus musculus [3] = test: Compound was tested for diuretic activity per os in saline-loaded mice at 64 mg/kg. (vehicle control value=1.22)
Mus musculus [4] = test: Compound was tested for diuretic activity after oral administration of 64 mg/kg in saline-loaded mice (vehicle control value=0.8)
Mus musculus [5] = test: Compound was tested for diuretic activity after oral administration of 64 mg/kg in saline-loaded mice vehicle control value=0.72)
Mus musculus [6] = test: Compound was tested for diuretic activity after oral administration of 64 mg/kg in saline-loaded mice (vehicle control value=0.42)
Mus musculus [7] = test: Compound was tested for diuretic activity after oral administration of 64 mg/kg in saline-loaded mice (vehicle control value=0.68)
Mus musculus [8] = test: Compound was tested for diuretic activity after oral administration of 64 mg/kg in saline-loaded mice (vehicle control value=0.27)
Mus musculus [9] = test: Compound was tested for diuretic activity after oral administration of 64 mg/kg in saline-loaded mice (vehicle control value=0.56)
Mus musculus [10] = test: Compound was tested for diuretic activity after oral administration of 64 mg/kg in saline-loaded mice vehicle control value=0.25)
Mus musculus [11] = test: Compound was tested for diuretic activity after oral administration of 64 mg/kg in saline-loaded mice (vehicle control value=0.3)
Mus musculus [12] = test: Compound was tested for diuretic activity after oral administration of 64 mg/kg in saline-loaded mice (vehicle control value=0.2)
Mus musculus [13] = test: Compound was tested for diuretic activity after oral administration of 64 mg/kg in saline-loaded mice (vehicle control value=0.1)

SMILES: O=C(O)COc1ccc2c(-c3ccccc3F)noc2c1Cl
- Diuretic activity (Mus musculus [1]): 10 m equiv [Na+] 5hr-1kg-1

SMILES: O=C(O)COc1ccc2c(-c3ccccc3Cl)noc2c1Cl
- Diuretic activity (Mus musculus [2]): 9.1 m equiv [Na+] 5hr-1kg-1

SMILES: O=C(O)COc1ccc2c(-c3ccccc3)nsc2c1Cl
- Diuretic activity (Mus musculus [3]): 2.28 (m equiv [Na+]) 5hr-1 kg-1

SMILES: O=C(O)COc1ccc(C2=NS(=O)(=O)c3ccccc32)c(Cl)c1Cl
- Diuretic activity (Mus musculus [4]): 2.03 m equiv [Na+] 5hr-1kg-1

SMILES: O=C(O)COc1ccc(-c2nsc3ccccc23)c(Cl)c1Cl
- Diuretic activity (Mus musculus [5]): 1.18 m equiv [Na+] 5hr-1kg-1

SMILES: O=C(O)COc1ccc2c(c1Cl)S(=O)(=O)N=C2c1ccccc1F
- Diuretic activity (Mus musculus [4]): 0.18 m equiv [Na+] 5hr-1kg-1

SMILES: Cn1nc(-c2ccc(OCC(=O)O)c(Cl)c2Cl)c2ccccc21
- Diuretic activity (Mus musculus [6]): 0.61 m equiv [Na+] 5hr-1kg-1

SMILES: Cn1nc(-c2ccccc2Cl)c2ccc(OCC(=O)O)c(Cl)c21
- Diuretic activity (Mus musculus [7]): 2.29 m equiv [Na+] 5hr-1kg-1

SMILES: O=C(O)COc1ccc2c(-c3ccccc3F)[nH]nc2c1Cl
- Diuretic activity (Mus musculus [8]): 0.45 m equiv [Na+] 5hr-1kg-1

SMILES: O=C(O)COc1ccc(-c2[nH]nc3ccccc23)c(Cl)c1Cl
- Diuretic activity (Mus musculus [9]): 0.65 m equiv [Na+] 5hr-1kg-1

SMILES: O=C(O)COc1ccc2c(-c3ccccc3F)nsc2c1Cl
- Diuretic activity (Mus musculus [10]): 4.59 m equiv [Na+] 5hr-1kg-1

SMILES: C=C(CC)C(=O)c1ccc(OCC(=O)O)c(Cl)c1Cl [ETHACRYNIC ACID]
- Diuretic activity (Mus musculus [11]): 4.14 (m equiv [Na+]) kg-1

SMILES: CC1(c2ccccc2)Cc2cc(OCC(=O)O)c(Cl)c(Cl)c2C1=O (centres undefined) [INDACRINONE]
- Diuretic activity (Mus musculus [12]): 7.6 m equiv [Na+] 5hr-1kg-1

SMILES: O=C(O)COc1ccc(C(=O)c2cccs2)c(Cl)c1Cl [TICRYNAFEN]
- Diuretic activity (Mus musculus [13]): 3.31 m equiv [Na+] 5hr-1kg-1
